Results as given in doi:10.1101/2022.02.09.479835v1 (biorxiv, 2022).
Where a SMILES comes first, the peptide text is derived from it. The star is where a group is joined. Cbz = O=C(OCc1ccccc1)*

target: human CatL (cathepsin-L, CTSL) (Homo sapiens, UniProt P07711); experiment: FRET peptide cleavage HTS; assay type: biochemical; conditions: read-out: % inhibition at 20 uM
Sequence (P07711 114-288): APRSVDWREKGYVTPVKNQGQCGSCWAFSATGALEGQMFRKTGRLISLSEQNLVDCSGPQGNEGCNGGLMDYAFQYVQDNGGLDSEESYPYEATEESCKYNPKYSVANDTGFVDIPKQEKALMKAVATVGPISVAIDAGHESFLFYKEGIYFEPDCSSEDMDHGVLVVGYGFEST
Sequence (P07711 292-333): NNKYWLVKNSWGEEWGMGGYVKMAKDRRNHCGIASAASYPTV

Which inhibition at 20 µM does the source give for `CC(C)C[C@H](NC(=O)OCc1ccccc1)C(=O)N[C@@H](C[C@@H]1CCNC1=O)C(O)S(=O)(=O)O` (stereo partly drawn) [GC-376] here?
The inhibition at 20 µM was > 50%.

`CC(C)C[C@@H](C=O)NC(=O)[C@H](CC(C)C)NC(=O)[C@H](CC(C)C)NC(=O)OCc1ccccc1` [MG-132] (Cbz-Leu-Leu-Leu-aldehyde) was tested. Which inhibition at 20 µM did it give?
The inhibition at 20 µM was > 50%.

With `C[C@H](NC(=O)[C@H](Cc1ccccc1)NC(=O)OCc1ccccc1)C(=O)CF` [Z-FA-FMK] as the molecule, how does the inhibition at 20 µM read?
Its inhibition at 20 µM is > 50%.

Which inhibition at 20 µM does the source give for `CCCN1CCN(c2ccc(C(=O)NC3(C(=O)NCC#N)CCCCC3)cc2)CC1` [balicatib] here?
Its inhibition at 20 µM is > 50%.

Which inhibition at 20 µM does the source give for `CC(=O)N[C@@H](CC(C)C)C(=O)N[C@@H](CC(C)C)C(=O)N[C@H](C=O)CCCNC(=N)N` [leupeptin hemisulfate] here?
Its inhibition at 20 µM is > 50%.

target: 3CL-Pro (Severe acute respiratory syndrome coronavirus 2, UniProt P0DTD1); experiment: biochemical; conditions: not given

How did the IC50 turn out when `C[C@H](NC(=O)[C@H](Cc1ccccc1)NC(=O)OCc1ccccc1)C(=O)CF` [Z-FA-FMK] was run?
The IC50 was 9.67 µM.
